Where a SMILES comes first, the peptide text is derived from it.

This passage reports IC50 results from patent US20020156236A1, “Binding sites for phosphotyrosine binding domains” (priority 1995, published 2002).

The target in this test is T1, PTB domain/c-erbB2 binding (GST-PTB domain of SHC; c-erbB2 from SKBR3 lysate) (Homo sapiens, UniProt P29353).
T1 construct: GST-PTB domain fusion proteins were expressed from recombinant baculovirus in sf9 cells; made in house; host or cells: Sf9 cells (recombinant baculovirus) for GST-PTB; c-erbB2 endogenous in SKBR3 cell lysate
T1 sequence (P29353 156-341): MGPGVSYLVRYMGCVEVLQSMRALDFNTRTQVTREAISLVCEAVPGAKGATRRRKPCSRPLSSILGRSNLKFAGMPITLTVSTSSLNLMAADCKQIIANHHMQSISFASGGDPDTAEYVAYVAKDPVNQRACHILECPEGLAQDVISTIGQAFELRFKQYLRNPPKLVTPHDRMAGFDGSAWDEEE
The test is described as follows: biochemical. As to conditions: Inhibition (relative inhibition scale of IC50).

The IC50 is the point on the concentration scale where inhibition reaches its midpoint. Higher therefore signals a need for much substance. For the molecule `CC(C)C[C@H](NC(=O)[C@H](CC(N)=O)NC(=O)[C@H](CO)NC(=O)[C@H](Cc1ccccc1)NC(=O)[C@H](C)NC(=O)[C@@H]1CCCN1C(=O)[C@H](CO)NC(=O)[C@H](Cc1ccccc1)NC(=O)[C@H](C)NC(=O)[C@@H]1CCCN1)C(=O)N[C@@H](Cc1ccc(O)cc1)C(=O)N[C@@H](Cc1ccc(OP(=O)(O)O)cc1)C(=O)N[C@@H](Cc1c[nH]c2ccccc12)C(=O)N[C@@H](CC(=O)O)C(=O)N[C@@H](CCC(N)=O)C(=O)N[C@@H](CC(N)=O)C(=O)N[C@@H](CO)C(=O)N[C@@H](CO)C(=O)N[C@@H](CCC(=O)O)C(=O)N[C@@H](CCC(N)=O)C(=O)NCC(=O)O` [PAFSPAFSNLY (pY) WDQNSSEQG, PAFSPAFSNLY(pY)WDQNSSEQG] (HELM PEPTIDE1{P.A.F.S.P.A.F.S.N.L.Y.[O=C([C@H](Cc1ccc(OP(=O)(O)O)cc1)N[*:1])[*:2]].W.D.Q.N.S.S.E.Q.G}$$$$V2.0), the IC50 was in the range of 5 to 50 µM.

With `CC(C)C[C@H](NC(=O)[C@H](CC(N)=O)NC(=O)[C@H](CC(=O)O)NC(=O)[C@H](Cc1ccccc1)NC(=O)[C@H](C)NC(=O)[C@@H]1CCCN1C(=O)[C@H](CO)NC(=O)[C@H](Cc1ccccc1)NC(=O)[C@H](C)NC(=O)[C@@H]1CCCN1)C(=O)N[C@@H](Cc1ccccc1)C(=O)N[C@@H](Cc1ccc(O)cc1)C(=O)N[C@@H](Cc1ccc(OP(=O)(O)O)cc1)C(=O)N[C@@H](Cc1c[nH]c2ccccc12)C(=O)N[C@@H](CC(=O)O)C(=O)N[C@@H](CCC(N)=O)C(=O)N[C@@H](CC(N)=O)C(=O)N[C@@H](CO)C(=O)N[C@@H](CO)C(=O)N[C@@H](CCC(=O)O)C(=O)N[C@@H](CCC(N)=O)C(=O)NCC(=O)O` [PAFSPAFDNLFY (pY) WDQNSSEQG] (HELM PEPTIDE1{P.A.F.S.P.A.F.D.N.L.F.Y.[O=C([C@H](Cc1ccc(OP(=O)(O)O)cc1)N[*:1])[*:2]].W.D.Q.N.S.S.E.Q.G}$$$$V2.0), the IC50 lay within 0.5 to 5 µM.

Molecule `CC(C)C[C@H](NC(=O)[C@H](C)NC(=O)[C@H](CC(=O)O)NC(=O)[C@H](Cc1ccccc1)NC(=O)[C@H](C)NC(=O)[C@@H]1CCCN1C(=O)[C@H](CO)NC(=O)[C@H](Cc1ccccc1)NC(=O)[C@H](C)NC(=O)[C@@H]1CCCN1)C(=O)N[C@@H](Cc1ccc(O)cc1)C(=O)N[C@@H](Cc1ccc(OP(=O)(O)O)cc1)C(=O)N[C@@H](Cc1c[nH]c2ccccc12)C(=O)N[C@@H](CC(=O)O)C(=O)N[C@@H](CCC(N)=O)C(=O)N[C@@H](CC(N)=O)C(=O)N[C@@H](CO)C(=O)N[C@@H](CO)C(=O)N[C@@H](CCC(=O)O)C(=O)N[C@@H](CCC(N)=O)C(=O)NCC(=O)O` [PAFSPAFDALY (pY) WDQNSSEQG] (HELM PEPTIDE1{P.A.F.S.P.A.F.D.A.L.Y.[O=C([C@H](Cc1ccc(OP(=O)(O)O)cc1)N[*:1])[*:2]].W.D.Q.N.S.S.E.Q.G}$$$$V2.0) registered an IC50 of over 50 µM.

Molecule `CC(C)C[C@H](NC(=O)[C@H](CC(N)=O)NC(=O)[C@H](CC(=O)O)NC(=O)[C@H](Cc1ccccc1)NC(=O)[C@H](C)NC(=O)[C@@H]1CCCN1C(=O)[C@H](CO)NC(=O)[C@H](Cc1ccccc1)NC(=O)[C@H](C)NC(=O)[C@@H]1CCCN1)C(=O)N[C@@H](Cc1ccc(O)cc1)C(=O)N[C@@H](Cc1ccc(OP(=O)(O)O)cc1)C(=O)N[C@@H](Cc1c[nH]c2ccccc12)C(=O)N[C@@H](CC(=O)O)C(=O)N[C@@H](CC(N)=O)C(=O)N[C@@H](CC(N)=O)C(=O)N[C@@H](CO)C(=O)N[C@@H](CO)C(=O)N[C@@H](CCC(=O)O)C(=O)N[C@@H](CCC(N)=O)C(=O)NCC(=O)O` [PAFSPAFDNLY (pY) WDNNSSEQG, PAFSPAFDNLY(pY)WDNNSSEQG] (HELM PEPTIDE1{P.A.F.S.P.A.F.D.N.L.Y.[O=C([C@H](Cc1ccc(OP(=O)(O)O)cc1)N[*:1])[*:2]].W.D.N.N.S.S.E.Q.G}$$$$V2.0) gave an IC50 of 0.5 to 5 µM.

On to `CC(C)C[C@H](NC(=O)[C@H](CC(N)=O)NC(=O)[C@H](CC(=O)O)NC(=O)[C@H](Cc1ccccc1)NC(=O)[C@H](C)NC(=O)[C@@H]1CCCN1C(=O)[C@H](CO)NC(=O)[C@H](Cc1ccccc1)NC(=O)[C@H](C)NC(=O)[C@@H]1CCCN1)C(=O)N[C@@H](Cc1ccc(O)cc1)C(=O)N[C@@H](Cc1ccc(OP(=O)(O)O)cc1)C(=O)N[C@@H](Cc1c[nH]c2ccccc12)C(=O)N[C@@H](CC(=O)O)C(=O)N[C@@H](C)C(=O)N[C@@H](CC(N)=O)C(=O)N[C@@H](CO)C(=O)N[C@@H](CO)C(=O)N[C@@H](CCC(=O)O)C(=O)N[C@@H](CCC(N)=O)C(=O)NCC(=O)O` [PAFSPAFDNLY (pY) WDANSSEQG, PAFSPAFDNLY(pY)WDANSSEQG] (HELM PEPTIDE1{P.A.F.S.P.A.F.D.N.L.Y.[O=C([C@H](Cc1ccc(OP(=O)(O)O)cc1)N[*:1])[*:2]].W.D.A.N.S.S.E.Q.G}$$$$V2.0), for which the IC50 lay in the range of 0.5 to 5 µM.

The molecule `CC(C)C[C@H](NC(=O)[C@H](CC(N)=O)NC(=O)[C@H](C)NC(=O)[C@H](Cc1ccccc1)NC(=O)[C@H](C)NC(=O)[C@@H]1CCCN1C(=O)[C@H](CO)NC(=O)[C@H](Cc1ccccc1)NC(=O)[C@H](C)NC(=O)[C@@H]1CCCN1)C(=O)N[C@@H](Cc1ccc(O)cc1)C(=O)N[C@@H](Cc1ccc(OP(=O)(O)O)cc1)C(=O)N[C@@H](Cc1c[nH]c2ccccc12)C(=O)N[C@@H](CC(=O)O)C(=O)N[C@@H](CCC(N)=O)C(=O)N[C@@H](CC(N)=O)C(=O)N[C@@H](CO)C(=O)N[C@@H](CO)C(=O)N[C@@H](CCC(=O)O)C(=O)N[C@@H](CCC(N)=O)C(=O)NCC(=O)O` [PAFSPAFANLY (pY) WDQNSSEQG, PAFSPAFANLY(pY)WDQNSSEQG] (HELM PEPTIDE1{P.A.F.S.P.A.F.A.N.L.Y.[O=C([C@H](Cc1ccc(OP(=O)(O)O)cc1)N[*:1])[*:2]].W.D.Q.N.S.S.E.Q.G}$$$$V2.0) registered an IC50 of 5 to 50 µM.

Take `CC(C)C[C@H](NC(=O)[C@H](CC(=O)O)NC(=O)[C@H](CC(=O)O)NC(=O)[C@H](Cc1ccccc1)NC(=O)[C@H](C)NC(=O)[C@@H]1CCCN1C(=O)[C@H](CO)NC(=O)[C@H](Cc1ccccc1)NC(=O)[C@H](C)NC(=O)[C@@H]1CCCN1)C(=O)N[C@@H](Cc1ccc(O)cc1)C(=O)N[C@@H](Cc1ccc(OP(=O)(O)O)cc1)C(=O)N[C@@H](Cc1c[nH]c2ccccc12)C(=O)N[C@@H](CC(=O)O)C(=O)N[C@@H](CCC(N)=O)C(=O)N[C@@H](CC(N)=O)C(=O)N[C@@H](CO)C(=O)N[C@@H](CO)C(=O)N[C@@H](CCC(=O)O)C(=O)N[C@@H](CCC(N)=O)C(=O)NCC(=O)O` [PAFSPAFDDLY (pY) WDQNSSEQG] (HELM PEPTIDE1{P.A.F.S.P.A.F.D.D.L.Y.[O=C([C@H](Cc1ccc(OP(=O)(O)O)cc1)N[*:1])[*:2]].W.D.Q.N.S.S.E.Q.G}$$$$V2.0): the IC50 is over 50 µM.
